Laboratory results: patent US5922707A, “Oxazolidinone antibacterial agent with tricyclic substituents” (Pharmacia & Upjohn Company, priority 1997, dated 1999)

Columns and labels:
Format in all cases: cell-based
[1] = tested on: Streptococcus Pneumoniae UC ® No. 9912; experiment: In vitro antimicrobial activity, MIC by agar dilution, S. pneumoniae 9912; conditions: UC9912, Mueller Hinton agar + 1% Supplement C, 35° C., 18 hours, read-out: Minimum inhibitory concentration (MIC), S. p. 9912
Experimental: (§1) Antimicrobial activity was tested in vitro using the procedure described in National Committee for Clinical Laboratory Standards. Methods for dilution antimicrobial susceptibility tests for bacteria that grow aerobically--third edition; Approved Standard. NCCLS Document M7-A3. Villanova, Pa.: NCCLS; 1993. Minimum inhibitory concentration (MIC) values were determined by an agar dilution method (1) in which the test medium was Mueller Hinton agar (MHA; Difco Laboratories, Detroit, Mich.) supplemented with 1% Supplement C (Difco). Serial two-fold dilutions of each compound were prepared using 1.0 ml volumes of sterile distilled water. To each 1.0 ml aliquot was added 9.0 ml of molten agar medium. The drug-supplemented agar was mixed, poured into 15×100 mm petri dishes, and allowed to solidify and dry at room temperature prior to inoculation. The test cultures were grown aerobically overnight at 35° C. on MHA; streptococcal strains were grown on Trypticase Soy Blood Agar Base EH (Difco) supplemented with 5% defibrinated sheep blood (BBL, Becton Dickinson Company, Cockeysville, Md.). Colonies were harvested with a sterile swab, and cell suspensions were prepared in Trypticase Soy Broth (TSB; Becton Dickinson Company) to equal the turbidity of a 0.5 McFarland standard. A 1:19 dilution of the suspension was made in TSB; this diluted suspension constituted the inoculum for the assay. The plates containing the drug-supplemented agar were inoculated with a 0.001 ml drop of the cell suspensions using a Steers replicator (Melrose Machine Shop, Woodlyn, Pa.), yielding approximately 10^4 -10^5 cells per spot. The plates were incubated aerobically at 35° C. for 18 hours and the MIC was read as the lowest concentration of drug that inhibited visible growth of the organism. The growth of a single colony was considered to be negative.

[2] = tested on: Staphylococcus aureus UC ® No. 9213; experiment: In vitro antimicrobial activity, MIC by agar dilution, S. aureus 9213; conditions: UC9213, Mueller Hinton agar + 1% Supplement C, 35° C., 18 hours, read-out: Minimum inhibitory concentration (MIC), S. a. 9213
Experimental: as §1

[3] = tested on: Staphylococcus aureus UC ® No. 6685; experiment: In vitro antimicrobial activity, MIC by agar dilution, S. aureus 6685; conditions: UC6685, Mueller Hinton agar + 1% Supplement C, 35° C., 18 hours, read-out: Minimum inhibitory concentration (MIC), S. a. 6685
Experimental: as §1

Row | MIC [1] [µg/mL] | MIC [2] [µg/mL] | MIC [3] [µg/mL] | SMILES
1 | 1 | 8 | 4 | CC(=O)NC[C@H]1CN(c2ccc3c(c2)OCC2CN(C(=O)OCc4ccccc4)CCN32)C(=O)O1 (stereo partly drawn) [Example 1, 8-[5-(S)-[(acetylamino)methyl]-2-oxo-3-oxazolidinyl]-1,2,4a, 5-tetrahydropyrazino[2,1-c] [1, 4]benzoxazine-3(4 H)-carboxylic acid phenylmethyl ester]
2 | 2 | 8 | 8 | CC(=O)NC[C@H]1CN(c2ccc3c(c2)OCC2CN(C(=O)COCc4ccccc4)CCN32)C(=O)O1 (stereo partly drawn) [Example 2, N-[[3-[1,2,3,4,4a, 5-Hexahydro-3-[(phenylmethoxy)acetyl]pyrazino[2,1-c] [1, 4]benzoxazin-8-yl]-2-oxo-5-(S)-oxazolidinyl]methyl]-acetamide]
3 | 1 | 8 | 4 | COC(=O)N1CCN2c3ccc(N4C[C@H](CNC(C)=O)OC4=O)cc3OCC2C1 (stereo partly drawn) [Example 3, 8-[5-(S)-[(Acetylamino)methyl]-2-oxo-3-oxazolidinyl]-1,2,4a, 5-tetrahydropyrazino[2,1-c] [1, 4]benzoxazine-3(4 H)-carboxylic acid methyl ester]
4 | 1 | 8 | 8 | CC(=O)NC[C@H]1CN(c2ccc3c(c2)OCC2CN(C(=O)CO)CCN32)C(=O)O1 (stereo partly drawn) [Example 4]
5 | < 0.5 | 4 | 2 | CC(=O)NC[C@H]1CN(c2ccc3c(c2)OCC2CN(C(=O)c4ccno4)CCN32)C(=O)O1 (stereo partly drawn) [Example 5, N-[[3-[1,2,3,4,4a, 5-Hexahydro-3-(5-isoxazolylcarbonyl)pyrazino[2,1-c] [1, 4]benzoxazin-8-yl]-2-oxo-5-(S)-oxazolidinyl]methyl]-acetamide]
6 | 1 | 8 | 4 | CC(=O)NC[C@H]1CN(c2ccc3c(c2)OCC2CN(C(=O)c4cc5ccccc5[nH]4)CCN32)C(=O)O1 (stereo partly drawn) [Example 6, N-[[3-[1,2,3,4,4a, 5-hexahydro-3-(1 H-indol-2-ylcarbonyl)pyrazino[2,1-c] [1, 4]benzoxazin-8-yl]-2-oxo-5-(S)-oxazolidinyl]methyl]-acetamide]
7 | 1 | 8 | 4 | CC(=O)NC[C@H]1CN(c2ccc3c(c2)OC[C@H]2CN(C(=O)OCc4ccccc4)CCN32)C(=O)O1 [Example 7a, (R)-8-[5-(S)-[(acetylamino)methyl]-2-oxo-3-oxazolidinyl]-1,2,4a, 5-tetrahydropyrazino[2,1-c][1,4]benzoxazin-3(4 H)-carboxylic acid phenylmethyl ester]
8 | 2 | 8 | 8 | CC(=O)NC[C@H]1CN(c2ccc3c(c2)OC[C@@H]2CN(C(=O)OCc4ccccc4)CCN32)C(=O)O1 [Example 7b, (S)-8-[5-(S)-[(acetylamino)methyl]-2-oxo-3-oxazolidinyl]-1,2,4a, 5-tetrahydropyrazino[2,1-c][1,4]benzoxazin-3(4H)-carboxylic acid phenylmethyl ester]
9 | 0.5 | 4 | 4 | COC(=O)N1CCN2c3ccc(N4C[C@H](CNC(C)=O)OC4=O)cc3OC[C@H]2C1 [Example 8a, (R)-8-[5-(S)-[(acetylamino)methyl]-2-oxo-3-oxazolidinyl]-1,2,4a, 5-tetrahydropyrazino[2,1-c] [1, 4]benzoxazine-3(4 H)-carboxylic acid methyl ester]
10 | 2 | 8 | 8 | COC(=O)N1CCN2c3ccc(N4C[C@H](CNC(C)=O)OC4=O)cc3OC[C@@H]2C1 [Example 8b, (S)-8-[5-(S)-[(acetylamino)methyl]-2-oxo-3-oxazolidinyl]-1,2,4a, 5-tetrahydropyrazino[2,1-c] [1, 4]benzoxazine-3(4 H)-carboxylic acid methyl ester]
11 | 2 | 16 | 8 | CC(=O)NC[C@H]1CN(c2ccc3c(c2)OC[C@H]2CCCCN32)C(=O)O1 [Example 9a, (R)-N-[[[1,2,3,4,4a, 5-hexahydropyridino[2,1-c][1, 4]benzoxazin-8-yl]-2-oxo-5-(S)-oxazolidinyl]methyl]-acetamide]
12 | 2 | 8 | 4 | CC(=O)NC[C@H]1CN(c2ccc3c(c2)OC[C@@H]2CCCCN32)C(=O)O1 [Example 9b, (S)-N-[[[1,2,3,4,4a, 5-hexahydropyridino[2,1-c][1, 4]benzoxazin-8-yl]-2-oxo-5-(S)-oxazolidinyl]methyl]-acetamide]
